# Where a name gives a salt, the structure may show the parent alone.
# System: cultured human mast cells (CHMC)
# Test: CHMC low cell density IgE activation: tryptase assay
# Type: cell-based
# Conditions: Homo sapiens, Mast cell, low cell density CHMC, IgE activation, tryptase, 3 pt; read-out: LD Tryptase, CHMC, IgE, 3 pt
# Procedure: Inhibition of degranulation was measured at both low and high cell density by quantifying the release of the granule specific factors tryptase, histamine and hexosaminidase. Inhibition of release and/or synthesis of lipid mediators was assessed by measuring the release of leukotriene LTC4 and inhibition of release and/or synthesis of cytokines was monitored by quantifying TNF-α, IL-6 and IL-13. Tryptase and hexosaminidase were quantified using fluorogenic substrates as described in their respective examples. […] The protocols of the various assays are provided below.
# Pellet CHMC cells (980 rpm, 10 min) and resuspend in pre-warmed MT. Add 65 ul of cells to each 96-well plate. Depending on the degranulation activity for each particular CHMC donor, load 1000-1500 cells/well. Mix four times followed by a 1 hr incubation at 37° C. […] Stimulate cells by adding 25 ul of 6× anti-IgE solution to the appropriate plates. Add 25 ul MT to un-stimulated control wells. Mix twice following addition of the anti-IgE. Incubate at 37° C. for 30 minutes. […] Spin plates at 1000 rpm for 10 min to pellet cells. Transfer 25 ul of supernatant to a 96-well black bottom plate and add 100 ul of freshly diluted tryptase substrate solution to each well. Incubate plates at room temperature for 30 min.
row,IC50,SMILES
1,> 10 µM,CC1(C)Oc2ccc(Nc3nc(Nc4ccc5ccn(C(N)=O)c5c4)ncc3F)cc2NC1=O [Compound 348]
2,< 10 µM,COc1cc(Nc2nc(Nc3cc(C)c(Cl)c(C)c3)ncc2F)cc(OC)c1 [Compound 349]
3,< 10 µM,COc1cc(Nc2nc(Nc3cc(Cl)cc(Cl)c3)ncc2F)cc(OC)c1 [Compound 352]
4,< 10 µM,COc1cc(Nc2nc(Nc3cc(C)cc(C(F)(F)F)c3)ncc2F)cc(OC)c1 [Compound 353]
5,< 10 µM,COc1cc(Nc2nc(Nc3cc(OC)cc(C(F)(F)F)c3)ncc2F)cc(OC)c1 [Compound 355]
6,< 10 µM,"COc1cc(Nc2ncc(F)c(Nc3ccc4c(c3)OCO4)n2)cc(C(F)(F)F)c1 [Compound 373, 5-Fluoro-N4-(3,4-methylenedioxyphenyl)-N2-(3-methoxy-5-trifluoromethylphenyl)-2,4-pyrimidinediamine]"
7,> 10 µM,Cc1cc(Nc2ncc(F)c(Nc3ccc4c(c3)OCO4)n2)cc(C(F)(F)F)c1 [Compound 374]
8,< 10 µM,Fc1cnc(Nc2cc(Cl)cc(Cl)c2)nc1Nc1ccc2c(c1)OCO2 [Compound 375]
9,< 10 µM,COc1ccc(Nc2nc(Nc3cc(OC)c(Cl)cc3OC)ncc2F)cc1Cl [Compound 377]
10,< 10 µM,COc1cc(Nc2ncc(F)c(Nc3ccc4c(c3)OCCO4)n2)c(OC)cc1Cl [Compound 379]
11,< 10 µM,COc1cc(Nc2nc(Nc3cc(OC)c(Cl)cc3OC)ncc2F)cc(OC)c1 [Compound 380]
12,< 10 µM,COC(=O)c1cc2cc(Nc3ncc(F)c(Nc4cc(OC)cc(OC)c4)n3)ccc2o1 [Compound 381]
13,< 10 µM,COc1cc(Nc2nc(Nc3cccc4cc(C(=O)O)[nH]c34)ncc2F)cc(OC)c1 [Compound 383]

# Same assay, conditions: Homo sapiens, Mast cell, low cell density CHMC, IgE activation, tryptase, 8 pt; read-out: LD Tryptase, CHMC, IgE, 8 pt
row,IC50,SMILES
1,< 10 µM,"COc1cc(Nc2nc(Nc3ccc4c(c3)OCCO4)ncc2F)cc(OC)c1 [Compound 351, N4-(3,5-Dimethoxyphenyl)-N2-(3,4-ethylenedioxyphenyl)-5-fluoro-2,4-pyrimidinediamine]"
2,< 10 µM,Fc1cnc(Nc2cc(Cl)cc(Cl)c2)nc1Nc1ccc2c(c1)OCCO2 [Compound 354]
3,< 10 µM,"COc1cc(Nc2ncc(F)c(Nc3ccc4c(c3)OCCO4)n2)cc(C(F)(F)F)c1 [Compound 356, N4-(3,4-Ethylenedioxyphenyl)-5-fluoro-N2-(3-methoxy-5-trifluoromethylphenyl)-2,4-pyrimidinediamine]"
4,< 10 µM,"COc1cc(Cl)cc(Nc2ncc(F)c(Nc3ccc4c(c3)NC(=O)C(C)(C)O4)n2)c1 [Compound 369, N2-(3-Chloro-5-methoxyphenyl)-N4-(2,2-dimethyl-3-oxo-4H-benz[1,4]oxazin-6-yl)-5-fluoro-2,4-pyrimidinediamine]"
5,< 10 µM,COc1cc(Cl)cc(Nc2ncc(F)c(Nc3ccc4c(c3)OCCO4)n2)c1 [Compound 370]
6,< 10 µM,"CNC(=O)c1cc2cccc(Nc3ncc(F)c(Nc4ccc5c(c4)OCO5)n3)c2[nH]1 [Compound 371, 5-Fluoro-N4-(3,4-methylenedioxyphenyl)-N2-[2-(N-methylamino)carbonylindol-7-yl]-2,4-pyrimidinediamine]"
7,< 10 µM,"COc1cc(Nc2ncc(F)c(Nc3ccc4c(c3)OCO4)n2)cc(OC)c1 [Compound 372, N2-(3,5-Dimethoxyphenyl)-5-fluoro-N4-(3,4-methylenedioxyphenyl)-2,4-pyrimidinediamine]"
8,< 10 µM,Cc1cc(C)cc(Nc2ncc(F)c(Nc3ccc4c(c3)OCO4)n2)c1 [Compound 376]
9,< 10 µM,"COc1ccc(Nc2ncc(F)c(Nc3ccc4c(c3)NC(=O)C(C)(C)O4)n2)cc1Cl [Compound 378, N2-(3-Chloro-4-methoxyphenyl)-N4-(2,2-dimethyl-3-oxo-4H-benz[1,4]oxazin-6-yl)-5-fluoro-2,4-pyrimidinediamine p-Toluene Sulfonic Acid Salt]"
10,< 10 µM,COC(=O)c1cc2cc(Nc3ncc(F)c(Nc4cc(OC)cc(OC)c4)n3)ccc2o1 [Compound 381]

# Same assay, conditions: Homo sapiens, Mast cell, low cell density, IgE activation, 3 pt; read-out: LD Tryptase, CHMC, IgE, 3 pt
row,IC50,SMILES
1,> 10 µM,CNC(=O)c1ccc(Nc2nc(Nc3ccc(Cl)c(C(=O)NC)c3)ncc2F)cc1Cl [Compound 484]
2,< 10 µM,"CNC(=O)c1ccc(Nc2nc(Nc3ccc4cc[nH]c4c3)ncc2F)cc1Cl [Compound 485, N4-[3-Chloro-4-(N-methylamino)carbonylphenyl]-5-fluoro-N2-(indol-6-yl)-2,4-pyrimidinediamine]"
3,< 10 µM,"Oc1cccc(Nc2nc(Nc3cccc(-c4ncco4)c3)ncc2F)c1 [Compound 511, 5-Fluoro-N4-(3-hydroxyphenyl)-N2-[3-(oxazol-2-yl)phenyl]-2,4-pyrimidinediamine]"
4,< 10 µM,Oc1cccc(Nc2nc(Nc3cccc(-c4ncon4)c3)ncc2F)c1 [Compound 522]
5,> 10 µM,COc1cc(N(C)c2nc(Cl)ncc2F)cc(OC)c1OC [Compound 523]
6,< 10 µM,"Cc1cc(Nc2nc(Nc3cccc(-c4ncco4)c3)ncc2F)no1 [Compound 524, 5-Fluoro-N4-(5-methylisoxazol-3-yl)-N2-[3-(oxazol-2-yl)phenyl]-2,4-pyrimidinediamine]"
7,< 10 µM,Cc1onc(-c2ccccc2)c1Nc1nc(Nc2cccc(-c3ncco3)c2)ncc1F [Compound 525]
8,< 10 µM,Cn1nc(-c2ccccc2)cc1Nc1nc(Nc2cccc(-c3ncco3)c2)ncc1F [Compound 526]
9,< 10 µM,COC(=O)c1cc(Nc2ncc(F)c(Nc3cc(C(=O)OC)cc(-c4ncco4)c3)n2)cc(-c2ncco2)c1 [Compound 527]
10,> 10 µM,Cc1noc(C)c1Nc1ncc(F)c(Nc2c(C)noc2C)n1 [Compound 528]
11,< 10 µM,Fc1cnc(Nc2cc(-c3ncco3)cc(C(F)(F)F)c2)nc1Nc1cc(-c2ncco2)cc(C(F)(F)F)c1 [Compound 529]

# Same assay, conditions: Homo sapiens, Mast cell, low cell density, IgE activation, 8 pt; read-out: LD Tryptase, CHMC, IgE, 8 pt
row,IC50,SMILES
1,< 10 µM,"CNC(=O)c1ccc(Nc2nc(Nc3ccc4cc[nH]c4c3)ncc2F)cc1Cl [Compound 485, N4-[3-Chloro-4-(N-methylamino)carbonylphenyl]-5-fluoro-N2-(indol-6-yl)-2,4-pyrimidinediamine]"

# Same assay, conditions: low cell density CHMC, IgE activation, tryptase, 3 pt; read-out: LD Tryptase, CHMC, IgE, 3 pt
row,IC50,SMILES
1,< 10 µM,"CNC(=O)n1ccc2ccc(Nc3ncc(F)c(Nc4ccc5c(c4)NC(=O)C(C)(C)O5)n3)cc21 [Compound 347, N4-(2,2-Dimethyl-3-oxo-4H-benz[1,4]oxazin-6-yl)-N2-[1-(N-methylaminocarbony)lindol-6-yl)-5-fluoro-2,4-pyrimidinediamine]"
2,< 10 µM,COc1cc(Nc2ncc(F)c(Nc3ccc4c(c3)OC(F)(F)C(F)(F)O4)n2)cc(OC)c1 [Compound 357]
3,> 10 µM,Cc1cc(Nc2ncc(F)c(Nc3ccc4c(c3)OC(F)(F)C(F)(F)O4)n2)cc(C)c1Cl [Compound 358]
4,> 10 µM,Fc1cnc(Nc2cc(Cl)cc(Cl)c2)nc1Nc1ccc2c(c1)OC(F)(F)C(F)(F)O2 [Compound 360]
5,< 10 µM,COc1cc(Nc2ncc(F)c(Nc3ccc4c(c3)OC(F)(F)C(F)(F)O4)n2)cc(C(F)(F)F)c1 [Compound 361]
6,< 10 µM,"Cc1cc(C)cc(Nc2ncc(F)c(Nc3ccc4c(c3)OC(F)(F)C(F)(F)O4)n2)c1 [Compound 362, N2-(3,5-Dimethyphenyl)-5-fluoro-N4-[3,4-(tetrafluoroethylenedioxy)phenyl]-2,4-pyrimidinediamine]"
7,< 10 µM,"Cc1cc(Nc2ncc(F)c(Nc3ccc4c(c3)OC(F)(F)C(F)(F)O4)n2)cc(C(F)(F)F)c1 [Compound 366, 5-Fluoro-N2-(3-methyl-5-trifluoromethyl)-N4-[3,4-(tetrafluoroethylenedioxy)phenyl]-2,4-pyrimidinediamine]"
8,< 10 µM,Fc1cnc(Nc2ccc3c(c2)OCCO3)nc1Nc1ccc2c(c1)OC(F)(F)C(F)(F)O2 [Compound 367]

# Same assay, conditions: low cell density CHMC, IgE activation, tryptase, 8 pt; read-out: LD Tryptase, CHMC, IgE, 8 pt
row,SMILES,IC50
1,COc1cc(Nc2ncc(F)c(Nc3ccc4c(c3)OC(F)(F)C(F)(F)O4)n2)cc(OC)c1 [Compound 357],< 10 µM
2,OCc1cc(CO)cc(Nc2ncc(F)c(Nc3ccc4c(c3)OC(F)(F)C(F)(F)O4)n2)c1 [Compound 359],< 10 µM
3,"Cc1cc(C)cc(Nc2ncc(F)c(Nc3ccc4c(c3)OC(F)(F)C(F)(F)O4)n2)c1 [Compound 362, N2-(3,5-Dimethyphenyl)-5-fluoro-N4-[3,4-(tetrafluoroethylenedioxy)phenyl]-2,4-pyrimidinediamine]",> 10 µM
4,Fc1cnc(Nc2ccc3c(c2)OCCO3)nc1Nc1ccc2c(c1)OC(F)(F)C(F)(F)O2 [Compound 367],< 10 µM
5,"COC(=O)C(C)(C)Oc1ccc(Nc2nc(Nc3cc(C)cc(C)c3)ncc2F)cc1Cl [Compound 402, N4-[3-Chloro-4-(methoxycarbonyl-1,1-dimethylmethyleneoxy)phenyl]-N2-(3,5-dimethylphenyl)-5-fluoro-2,4-pyrimidinediamine]",< 10 µM

# Second part, the compound after the results:
row,IC50,SMILES
1,< 10 µM,"COC(=O)C(C)(C)Oc1ccc(Nc2nc(Nc3cc(C)cc(C)c3)ncc2F)cc1 [Compound 403, N2-(3,5-Dimethylphenyl)-N4-[4-(methoxycarbonyl-1,1-dimethylmethyleneoxy)phenyl]-5-fluoro-2,4-pyrimidinediamine]"
2,< 10 µM,"CCOC(=O)C(C)(C)Oc1ccc(Nc2nc(Cl)ncc2F)cc1Cl [Compound 407, 2-Chloro-N4-[3-chloro-4-(ethoxycarbonyl-1,1-dimethylmethyleneoxy)phenyl]-5-fluoro-4-pyrimidineamine]"
3,< 10 µM,"CCOC(=O)C(C)(C)Oc1ccc(Nc2nc(Nc3cc(OC)cc(OC)c3)ncc2F)cc1Cl [Compound 408, N4-[3-Chloro-4-(ethoxycarbonyl-1,1-dimethylmethyleneoxy)phenyl]-N2-(3,5-dimethoxyphenyl)-5-fluoro-2,4-pyrimidinediamine]"

# Same assay, conditions: low cell density, IgE activation, 8 pt; read-out: LD Tryptase, CHMC, IgE, 8 pt
row,IC50,SMILES
1,< 10 µM,"CNC(=O)COc1cccc(Nc2ncc(F)c(Nc3ccc(C(=O)NC)c(Cl)c3)n2)c1 [Compound 483, N4-[3-Chloro-4-(N-methylamino)carbonylphenyl]-5-fluoro-N2-[3-(N-methylamino)carbonylmethyleneoxyphenyl]-2,4-pyrimidinediamine]"

# Reference: patent publication US20220073536A1 (Rigel Pharmaceuticals, Inc., priority 2003, published 2022)
